This passage reports IC50 and inhibition results from patent US20070197590A1, “SUBSTITUTED DIPIPERIDINE CCR2 ANTAGONISTS” (priority 2006, published 2007).

One assay deals with T1, CCR2 (Homo sapiens, UniProt P41597).
T1 construct: host or cells: THP-1 cells
T1 sequence (P41597 1-360 isoform P41597-2): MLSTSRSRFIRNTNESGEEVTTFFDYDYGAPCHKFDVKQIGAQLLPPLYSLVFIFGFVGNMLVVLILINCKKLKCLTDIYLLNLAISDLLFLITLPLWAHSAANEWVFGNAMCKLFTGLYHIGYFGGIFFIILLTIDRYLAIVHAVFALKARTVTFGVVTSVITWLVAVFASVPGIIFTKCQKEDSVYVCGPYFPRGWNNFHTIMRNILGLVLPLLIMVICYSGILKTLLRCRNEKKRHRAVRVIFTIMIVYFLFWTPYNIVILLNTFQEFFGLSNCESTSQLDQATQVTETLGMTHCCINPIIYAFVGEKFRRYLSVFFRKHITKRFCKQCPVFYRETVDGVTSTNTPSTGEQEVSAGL
Briefly: MCP-1 Receptor Binding Assay in THP-1 Cells. The conditions noted are these: for IC50: THP-1 cells, 0.5 nM 125I labeled MCP-1, 2 hours at 30° C., read-out: Inhibition of MCP-1 Binding IC50; for inhibition at 25 µM: test concentration of 25 μM, given where an IC50 value was not obtained, read-out: Inhibition of MCP-1 Binding, percent inhibition. The gist of the method: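 Whole THP-1 cells incubated 2 h at 30° C with 0.5 nM 125I-MCP-1 and varying compound concentrations; bound radioactivity harvested on filters and counted by scintillation. Nonspecific binding with 1 μM cold MCP-1; IC50 for inhibition of binding versus vehicle.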

The test system of assay [1] is MCP-1 induced chemotaxis of THP-1 cells. Nature of the assay: MCP-1 Induced Chemotaxis in THP-1 Cells. Type of assay: cell-based. Particulars: Homo sapiens, MCP-1 0.01 μg/mL, 3 hours at 37° C., read-out: Inhibition of MCP-1 Induced Chemotaxis IC50. As to the method: MCP-1 induced chemotaxis was run in a 24-well chemotaxis chamber. MCP-1 (0.01 μg/mL) was added to the lower chamber and 100 μL of THP-1 cells (1×10^7 cell/mL) was added to the top chamber. Varying concentrations of test compound were added to the top and bottom chambers. Cells were allowed to chemotax for 3 hours at 37° C. and 5% CO2. An aliquot of the cells that had migrated to the bottom chamber was taken and counted then compared to vehicle.
Table 3 lists IC50 values for inhibition of MCP-1 induced chemotaxis.

Assay [2] concerns MCP-1 induced calcium ion influx in THP-1 cells. Briefly: MCP-1 Induced Calcium Mobilization in THP-1 Cells. Particulars: Homo sapiens; for IC50: THP-1, THP-1 cells, 0.2 μM MCP-1, FLIPR, read-out: Inhibition of MCP-1 Induced Calcium Ion Influx IC50; for inhibition at 25 µM: THP-1, test concentration of 25 μM, given where an IC50 value was not obtained, read-out: Inhibition of MCP-1 Induced Calcium Ion Influx, percent inhibition. It is filed as cell-based. As to the method:
THP-1 cells were plated at a density of 8×10^5 cells/mL (100 μL/well) into poly-D lysine coated clear bottom, black 96 well plates. The cells were loaded with 5 μM fluo-3 for 45 minutes. The fluo-3 washed off and cells were incubated with varying concentrations of test compound for 15 minutes. The change in calcium ion concentration upon addition of 0.2 μM MCP-1 was determined using FLIPR and compared to vehicle.
Table 2 lists IC50 values for inhibition of MCP-1 induced influx of calcium ions.
A general note: Calcium flux is commonly read through the fluorescence of an indicator in the cells.

As a reminder, the IC50 is the concentration that inhibits the measured activity by half. Turning to `COc1ccc(C2CCN(CC(O)C3(O)CCN(C(=O)/C=C/c4ccc(Cl)c(Cl)c4)CC3)CC2)cc1` (stereo not drawn) [Compound 1], the results for the concentration for half-maximal inhibition (IC50) (on CCR2; in assay [1]; in assay [2]) were 0.25 µM, 0.09 µM and 0.07 µM, respectively.
`COc1ccc(C2CCN(CC(O)C3(O)CCN(C(=S)Nc4cc(Cl)cc(Cl)c4)CC3)CC2)cc1` (stereo not drawn) [Compound 118, 4-hydroxy-4-{1-hydroxy-2-[4-(4-methoxy-phenyl)-piperidin-1-yl]-ethyl}-piperidine-1-carbothioic acid (3,5-dichloro-phenyl)-amide]: the IC50 at CCR2 was 1.3 µM; in assay [2], 3.1 µM.
The inhibition is the change of the read-out against control, counted positive when it falls. Take `OC(CN1CCC(c2c[nH]c3ccccc23)CC1)C1(O)CCN(c2nccc(C(F)(F)F)n2)CC1` (stereo not drawn) [Compound 120, 4-{1-hydroxy-2-[4-(1H-indol-3-yl)-piperidin-1-yl]-ethyl}-1-(4-trifluoromethyl-pyrimidin-2-yl)-piperidin-4-ol]: the IC50 at CCR2 stood at 1.9 µM. For the same compound, in assay [2], the inhibition at 25 µM stood at 13%.
As for `OC(CN1CCC(c2nc3ccccc3[nH]2)CC1)C1(O)CCN(c2nccc(C(F)(F)F)n2)CC1` (stereo not drawn) [Compound 121, 4-{2-[4-(1H-benzoimidazol-2-yl)-piperidin-1-yl]-1-hydroxy-ethyl}-1-(4-trifluoromethyl-pyrimidin-2-yl)-piperidin-4-ol], the values for the inhibition at 25 µM (at CCR2; in assay [2]) were 50% and 65%, respectively.
Regarding `Cc1ccc2[nH]cc(C3CCN(CC(O)C4(O)CCN(c5nccc(C(F)(F)F)n5)CC4)CC3)c2c1` (stereo not drawn) [Compound 123, 4-{1-hydroxy-2-[4-(5-methyl-1H-indol-3-yl)-piperidin-1-yl]-ethyl}-1-(4-trifluoromethyl-pyrimidin-2-yl)-piperidin-4-ol], the IC50 on CCR2 was found to be 9.4 µM. Further, the inhibition at 25 µM in assay [2] worked out at 68%.
On to `N#Cc1ccc2[nH]cc(C3CCN(CC(O)C4(O)CCN(c5nccc(C(F)(F)F)n5)CC4)CC3)c2c1` (stereo not drawn) [Compound 124, 3-(1-{2-hydroxy-2-[4-hydroxy-1-(4-trifluoromethyl-pyrimidin-2-yl)-piperidin-4-yl]-ethyl}-piperidin-4-yl)-1H-indole-5-carbonitrile], for which the IC50 at CCR2 was determined as 8.3 µM. Further, the inhibition at 25 µM in assay [2] came to 43%.
In the case of `O=C(/C=C/c1ccc(F)c(F)c1)N1CCC(O)(C(O)CN2CCC(c3ccc(F)cc3)CC2)CC1` (stereo not drawn) [Compound 129], the results for the IC50 (at CCR2; in assay [2]) were 0.5 µM and 8 µM, respectively.
Take `O=C(/C=C/c1ccc(Cl)c(Cl)c1)N1CCC(O)(C(O)CN2CCC(c3ccc(F)cc3)CC2)CC1` (stereo not drawn) [Compound 131]: the figures for the IC50 (on CCR2; in assay [2]) were 0.18 µM and 0.38 µM, respectively.
On to `O=C(Nc1ccc(F)c(F)c1)N1CCC(O)(C(O)CN2CCC(c3ccc(F)cc3)CC2)CC1` (stereo not drawn) [Compound 132, 4-{2-[4-(4-fluoro-phenyl)-piperidin-1-yl]-1-hydroxy-ethyl}-4-hydroxy-piperidine-1-carboxylic acid (3,4-difluoro-phenyl)-amide], for which, at CCR2, the IC50 was 2.4 µM. Further, the inhibition at 25 µM in assay [2] was determined as 26%.
Regarding `O=C(Nc1ccc(Cl)c(Cl)c1)N1CCC(O)(C(O)CN2CCC(c3ccc(F)cc3)CC2)CC1` (stereo not drawn) [Compound 134, 4-{2-[4-(4-fluoro-phenyl)-piperidin-1-yl]-1-hydroxy-ethyl}-4-hydroxy-piperidine-1-carboxylic acid (3,4-dichloro-phenyl)-amide], on CCR2, the IC50 worked out at 1.9 µM. In addition, in assay [2], the inhibition at 25 µM is 52%.
For `OC(CN1CCC(c2ccc(F)cc2)CC1)C1(O)CCN(C(=S)Nc2ccc(Cl)c(Cl)c2)CC1` (stereo not drawn) [Compound 135, 4-{2-[4-(4-fluoro-phenyl)-piperidin-1-yl]-1-hydroxy-ethyl}-4-hydroxy-piperidine-1-carbothioic acid (3,4-dichloro-phenyl)-amide], the IC50 on CCR2 came out at 0.73 µM; in assay [2], 9.2 µM.
As for `O=C(/C=C/c1ccc(Cl)c(Cl)c1)N1CCC(O)(C(O)CN2CCC(c3ccc(C(F)(F)F)cc3)CC2)CC1` (stereo not drawn) [Compound 139], the IC50 on CCR2 was determined as 0.92 µM; in assay [2], 0.31 µM.
Turning to `O=C(/C=C/c1cc(F)c(F)c(F)c1)N1CCC(O)(C(O)CN2CCC(O)(c3ccc(F)cc3)CC2)CC1` (stereo not drawn) [Compound 152], the IC50 on CCR2 turned out to be 3.1 µM. Besides, the inhibition at 25 µM in assay [2] worked out at 43%.
On to `O=C(/C=C/c1ccc(F)c(F)c1)N1CCC(O)(C(O)CN2CCC(O)(c3ccc(F)cc3)CC2)CC1` (stereo not drawn) [Compound 153], for which, on CCR2, the IC50 was found to be 0.73 µM. Further, the inhibition at 25 µM in assay [2] is 12%.
As for `O=C(/C=C/c1ccc(Cl)c(Cl)c1)N1CCC(O)(C(O)CN2CCC(c3c[nH]c4ccc(F)cc34)CC2)CC1` (stereo not drawn) [Compound 158], the IC50 at CCR2 came to 0.35 µM; in assay [2], 2.1 µM.
In the same order, the values of `O=C(/C=C/c1ccc(F)c(Br)c1)N1CCC(O)(C(O)CN2CCC(c3c[nH]c4ccc(F)cc34)CC2)CC1` (stereo not drawn) [Compound 159] are 0.73 µM and 1.5 µM.
For the compound `O=C(CCc1ccc(Cl)cc1)N1CCC(O)(C(O)CN2CCC(c3c[nH]c4ccc(F)cc34)CC2)CC1` (stereo not drawn) [Compound 160, 3-(4-chloro-phenyl)-1-(4-{2-[4-(5-fluoro-1H-indol-3-yl)-piperidin-1-yl]-1-hydroxy-ethyl}-4-hydroxy-piperidine-1-yl)-propan-1-one], the IC50 on CCR2 was 0.84 µM; in assay [2] it was 3.6 µM.
On to `O=C(/C=C/c1ccc(Cl)c(Cl)c1)N1CCC(O)(C(O)CN2CCC(c3c[nH]c4ccc(N5CCOCC5)cc34)CC2)CC1` (stereo not drawn) [Compound 169], for which the concentration for half-maximal inhibition (IC50) at CCR2 came out at 0.79 µM; in assay [2], 5.4 µM.
For `O=C(/C=C/c1ccc(Cl)cc1)N1CCC(O)(C(O)CN2CCC(c3c[nH]c4ccc(N5CCOCC5)cc34)CC2)CC1` (stereo not drawn) [Compound 170] the same measures were 4.4 µM and 17.2 µM.
`O=C(/C=C/c1ccc(F)cc1)N1CCC(O)(C(O)CN2CCC(c3c[nH]c4ccc(N5CCOCC5)cc34)CC2)CC1` (stereo not drawn) [Compound 171]: at CCR2, the IC50 was determined as 12.8 µM. The inhibition at 25 µM in assay [2] came out at 22%.
Consider `O=C(/C=C/c1ccc(F)c(F)c1)N1CCC(O)(C(O)CN2CCC(c3c[nH]c4ccc(N5CCOCC5)cc34)CC2)CC1` (stereo not drawn) [Compound 172], for which the concentration for half-maximal inhibition (IC50) at CCR2 is 3.7 µM. For the same compound, in assay [2], the inhibition at 25 µM stood at 46%.
As to `O=C(/C=C/c1ccc(F)c(Br)c1)N1CCC(O)(C(O)CN2CCC(c3c[nH]c4ccc(N5CCOCC5)cc34)CC2)CC1` (stereo not drawn) [Compound 173], the figures for the IC50 (on CCR2; in assay [2]) were 0.91 µM and 1.2 µM, respectively.
Turning to `Cc1cccc(/C=C/C(=O)N2CCC(O)(C(O)CN3CCC(c4c[nH]c5ccc(N6CCOCC6)cc45)CC3)CC2)c1` (stereo not drawn) [Compound 174], the IC50 at CCR2 turned out to be 3.2 µM. Also, the inhibition at 25 µM in assay [2] was 44%.
With `O=C(/C=C/c1cc(F)c(F)cc1F)N1CCC(O)(C(O)CN2CCC(c3c[nH]c4ccc(N5CCOCC5)cc34)CC2)CC1` (stereo not drawn) [Compound 175], the inhibition at 25 µM on CCR2 is 70%; in assay [2], 24%.
`COc1cccc(/C=C/C(=O)N2CCC(O)(C(O)CN3CCC(c4c[nH]c5ccc(N6CCOCC6)cc45)CC3)CC2)c1` (stereo not drawn) [Compound 177]: the inhibition at 25 µM on CCR2 is 53%; in assay [2], 27%.
For `O=C(/C=C/c1ccsc1)N1CCC(O)(C(O)CN2CCC(c3c[nH]c4ccc(N5CCOCC5)cc34)CC2)CC1` (stereo not drawn) [Compound 178], the inhibition at 25 µM was determined as 59% at CCR2 and 2% in assay [2].
`OC(CN1CCC(c2c[nH]c3ccc(N4CCOCC4)cc23)CC1)C1(O)CCN(C(=S)Nc2cc(Cl)cc(Cl)c2)CC1` (stereo not drawn) [Compound 182, 4-hydroxy-4-{1-hydroxy-2-[4-(5-morpholin-4-yl-1H-indol-3-yl)-piperidin-1-yl]-ethyl}-piperidine-1-carbothioic acid (3,5-dichloro-phenyl)-amide]: the IC50 on CCR2 is 4.9 µM; in assay [2] it was 5.4 µM.
Take `CC(=O)Nc1ccc2[nH]cc(C3CCN(CC(O)C4CCN(C(=O)OCc5ccccc5)CC4)CC3)c2c1` (stereo not drawn) [Compound 184, 4-{2-[4-(5-acetylamino-1H-indol-3-yl)-piperidin-1-yl]-1-hydroxy-ethyl}-piperidine-1-carboxylic acid benzyl ester]: the figures for the inhibition at 25 µM (on CCR2; in assay [2]) were 61% and 13%, respectively.
